Test results published in PMC12126525, “Mechanism of ATP hydrolysis in the Hsp70 BiP nucleotide-binding domain” (Nature Communications, 2025).
“And” between values parts separate entries of the source, which are not always exact repeats. Equal values may be shown once.

How the values were obtained:
[1] = target: T1, BiP NBD (Homo sapiens, UniProt P11021); experiment: In-cyclo NMR with ATP regeneration (E1) and phosphate removal (E2): hydrolysis rate, state populations, occupancy times; assay type: biochemical; parameters: His6 (N, cleaved yes); made in house; host or cells: E. coli BL21-(DE3)-Lemo, pET28a vector; conditions: for khydr: Fig 3 f source data: replicates [1]-[3] and average; for cycle timing: Fig 4f source data: replicates [1]-[3] and average
T1 sequence (P11021 19-406): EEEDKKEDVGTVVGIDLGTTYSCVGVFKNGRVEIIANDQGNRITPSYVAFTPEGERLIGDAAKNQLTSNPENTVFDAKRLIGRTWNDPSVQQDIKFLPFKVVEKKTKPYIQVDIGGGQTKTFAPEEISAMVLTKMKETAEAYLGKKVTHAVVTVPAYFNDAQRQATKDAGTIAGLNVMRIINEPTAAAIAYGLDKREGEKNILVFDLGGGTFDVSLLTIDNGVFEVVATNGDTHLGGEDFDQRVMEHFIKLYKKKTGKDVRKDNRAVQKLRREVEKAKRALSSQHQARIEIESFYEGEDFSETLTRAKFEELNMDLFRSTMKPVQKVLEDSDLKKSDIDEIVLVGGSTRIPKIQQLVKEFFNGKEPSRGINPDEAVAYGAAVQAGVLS
Text: In order to create a stable steady-state condition, we implemented two enzymatic systems inside the NMR tube to convert ADP into ATP and to remove the free phosphate, respectively. The first enzyme (E1) is pyruvate kinase, at catalytic amounts, which combines phosphoenol pyruvate (PEP) and ADP to form ATP (Fig. 3a). […] The second enzyme (E2) is sucrose phosphorylase, at catalytic amounts, which catalyzes the conversion of sucrose and phosphate into α-D-glucose-1-phosphate and D-fructose. […] To distinguish this experiment from equilibrium experiments, and highlight the unique setup to control ATP, ADP and Pi levels simultaneously, we refer to this setup as the “in-cyclo” NMR experiment.
We then set out to determine the kinetic parameters of the functional cycle. The NMR signal intensities of each of the three detected states are proportional to their population in the steady state. We integrated 51 non-overlapping independent methyl groups to obtain the population ratio pDtotal/pT, including 7 non-overlapping independent methyl groups to obtain the subpopulation ratio pD·Pi/pD.
The macroscopic hydrolysis rate khydr is experimentally determined from monitoring the pyruvate production. From there, the reaction flux f of the functional cycle results as19 f=khydrNBD0 The inverse of the hydrolysis rate is the average length of the functional cycle T.20 T=khydr−1 The flux is maintained along the cycle, resulting in the equations21 f=kcatNBD^ATP 22 f=koff4+koff5⋅NBD^ADP⋅Pi 23 f=koff2NBD^ADP+koff3NBD^Pi 24 f=kon1NBD^apoATP−koff1NBD^ATP 25 koff2NBD^ADP=koff4NBD^ADP⋅Pi
All in-cyclo NMR experiments were recorded with BiP NBD samples [U-^2H, ^15N, ^12C], Met-[^13CH3]^ε, Val-[^13CH3/^12C^2H3]^cγ1/cγ2, Ile-[^13CH3]^δ1 in NMR buffer (25 mM HEPES, pH 7.5, 150 mM KCl and 10 mM MgCl2) at a concentration of BiP NBD 100 μM. The in-cyclo ATP regeneration system was composed of 5 units of pyruvate kinase (E1) from rabbit muscle ( ≈ 200 nM; Sigma-Aldrich) and the concentration of phosphoenolpyruvate (PEP- Sigma-Aldrich) was adjusted to maintain the system active for at least four hours ([PEP] = 10–100 mM). The in-cyclo phosphate removal system was composed of 5 units of recombinant sucrose phosphorylase (E2) ( ≈ 500 nM; Sigma-Aldrich) and the concentration of sucrose (Sigma-Aldrich) was adjusted to maintain the system active for at least four hours ([Sucrose] = 10–100 mM). This experimental setup was modified as described in the text by selectively including E1 and/or E2 depending on the purpose of the experiments. All the experiments were recorded at minimum as experimental triplicates.
The in-cyclo experiment was initiated by the addition of 5 mM ATP (Sigma-Aldrich) and allowed to equilibrate at a temperature of 37 °C for 5 min in the NMR spectrometer. After the equilibration time 2D [^13C,^1H]-HMQC spectra were recorded in interleaved mode with 1D ^1H NMR spectra. […] The same setup was used for the alternative experiments by including or excluding E1 and/or E2.

[2] = target: T1, BiP NBD; experiment: Exchange spectroscopy (EXSY) NMR of NBD apo / NBD·Pi exchange; assay type: binding; parameters: His6 (N, cleaved yes); made in house; host or cells: E. coli BL21-(DE3)-Lemo, pET28a vector; conditions: 25 °C, 400 μM BiP NBD, 200 μM phosphate
Description: ^13C-edited 2D Exchange Spectroscopy (EXSY) experiments were acquired to characterize the exchange between the NBD apo and NDB·Pi state (k3on, k3off). For this purpose, we used a modified methyl-TROSY experiment with an additional EXSY element prior to acquisition (90° ^1H – EXSY mixing delay – 90° ^1H)[49]. A recycle delay of 1 s was used in all experiments. The EXSY mixing times were set to 5, 50, 100, 200, 300, 400, 500, 600, 800, 1000, 1250, 1500 ms, with an average acquisition time of 120 min for each spectrum. The EXSY experiments were performed at 25 °C with a [U-^2H, ^15N, ^12C], Met-[^13CH3]^ε and Ile-[^13CH3]^δ1 BiP NBD sample at 400 μM in NMR buffer (25 mM HEPES, pH 7.5, 150 mM KCl and 20 mM MgCl2) with 200 μM of phosphate.

ATP consumption ([1]; 100 μM BiP NBD, 5 mM ATP, 37 °C) [mM/min]	khydr ([1]; mean) [min⁻¹]	cycle timing [1]	cycle timing ([1]; mean) [s]	catalytic ATP hydrolysis rate kcat = tT^−1 ([1]; from occupancy time of the T state) [s⁻¹]	average length of the functional cycle T = khydr^−1 ([1]; in-cyclo, no calcium) [s]	macroscopic hydrolysis rate khydr ([1]; in-cyclo, no calcium, 37 °C) [min⁻¹]	koff3 (EXSY) [2] [s⁻¹]	kon3 (EXSY) [2] [M⁻¹ s⁻¹]	Structure (SMILES)	khydr [1]
0.15 ± 0.01	1.471	42.34 s and 39.82 s and 40.31 s	41	0.067	41 ± 2	1.47 ± 0.05			Nc1ncnc2c1ncn2[C@@H]1O[C@H](COP(=O)(O)OP(=O)(O)OP(=O)(O)O)[C@@H](O)[C@H]1O [ATP]	1.417 min⁻¹ and 1.507 min⁻¹ and 1.488 min⁻¹
							1.32 ± 0.31	5000 ± 2000	O=P(O)(O)O [Pi]	
